Measured values taken from US8846914B2, “Compositions to effect neuronal growth” (Neuralstem, Inc., priority 2003, dated 2014).

Assays:
[1] = tested on: human hippocampal stem cells; assay: Neurogenesis, TuJ1 immunostaining / Hoechst (primary screen); assay type: cell-based
Source text: FIG. 2 is a bar graph illustrating an example of a neurogenesis profile of compounds selected from primary screening. After seven days of compound treatment, the cells were stained with the neuron-specific anti-tubulin IIIb antibody. TuJ1, for neurons and Hoechst for all cell nuclei. Shown are the relative ratio of neuron: total cells for each compound over the vehicle control in percentage. Typical ratio for vehicle control is 40-50% neurons. The ratio can change by either increased differentiation of stem cells to neurons, decreased proliferation of astrocytes, or increased proliferation of neuronal progenitors.
FIG. 3 is a bar graph illustrating an example of a neurogenesis profile of compounds selected from primary screening. After seven days of compound treatment, the cells were stained with TuJ1 for neurons. The number of TuJ1+ neurons per area was quantified and expressed as a relative value to the vehicle treated control.
The final neuron number is detected by immunostaining of the culture with antibodies against neurons and is quantified by counting of the immunopositive neurons and/or by measuring the staining intensity. Therefore, after seven days of compound treatment, the cells are stained with the neuron-specific anti-tubulin IIIb antibody, TuJ1, for neurons and Hoechst for all cell nuclei. The number of TuJ1+ neurons per area is quantified and expressed as a value relative to the vehicle-treated control of Hoechst-stained cells. In this regard, the medium is removed from the wells by decanting and blotting the plates on paper towels. The cells are then fixed in 100 μl of 4% paraformaldehyde per well for thirty minutes at room temperature. The cells are washed three times with 400 μl per well of phosphate-buffered saline (PBS) at pH 7.5 for approximately ten minutes per wash. The plates are then stored at 4° C. in PBS or used immediately for staining.
The cells are subsequently stained with antibodies against neuron-specific antigens according to standard procedures. The staining process includes decanting the PBS and blocking the cells with 100 μl of 5% Normal Goat Serum (NGS) in PBS for one hour at room temperature. The NGS/PBS is decanted and the plates are blotted on a paper towel. The cells are then permeabilized with 0.1% Triton X-100 in PBS for 30 minutes at room temperature.
Typical neuron-specific antigens include Type III-beta tubulin and MAP-2c. The total cell number in each well was quantified by staining the cultures with a nuclear dye such as DAPI or Hoechst according to standard procedures. Therefore, once the cells are permeabilized, 20 μl of TuJ1, monoclonal antibody against neuronal class 111 β-tubulin (CoVance (BabCo) MMS-435P) and 32 μl of anti-GFAP polyclonal (DAKO Z0334) are added to and mixed of PBS with 5% NGS. Final dilutions of TuJ1 and anti-GFAP are 1:400 and 1:250, respectively. 90 μl of the antibody solution is added to each well except two eleventh column. 90 μl of PBS/5% NGS is added to the eleventh column and no cells are added to the twelfth column. The plate(s) are sealed with parafilm and incubated at 4° C. overnight.
After incubating the cells overnight, the antibody solution is decanted and 200 μl of PBS/0.1% Triton X-100 is added to the wells. The plate(s) are placed on a shaker and incubated at room temperature with gentle shaking for ten minutes. The cells are again washed with the PBS/Triton X-100 solution another two times.
Following staining with TuJ1 and anti-GFAP, 20 μl of Alexa Fluor 488 labeled goat anti-moose IgG (H+L) (Molecular Probes A-11001) and 100 μl of LRSC-IgG, goat anti-rabbit (Jackson Immune 111-295-144) is added and mixed with 10 ml of PBS/5% NGS. 100 μl of the resulting antibody solution is added to each well. The plate(s) are covered with foil and incubated with gentle shaking for up to one hour at room temperature. The cells are again washed as described above with PBS and an Triton X-100. […]

[2] = tested on: human hippocampal stem cells; conditions: positive control; as described in U.S. Ser. No. 10/728,652; cited from earlier work

In the case of `COc1ccc(C2CNC(=O)C2)cc1OC1CCCC1` (centres unmarked) [Rolipram, reference compound], the “Activity in primary in vitro neurogenesis screen” value [1] is reported as “effective”.
For “LIF: leukemia inhibitory factor (LIF), a cytokine growth factor, positive control”, the “Increase of the number of neurons and glia” value [2] is listed as “two to three-fold”.
